Results from patent US10048254B2, “Cyclic-di-AMP specific detection” (priority 2013, dated 2018).

Key:
PdxR [1] = test: Mobility retardation of labeled c-di-AMP in 8% native PAGE gel (control protein); format: binding; conditions: FIG. 2C
CabP [2] = biological target: T1, CabP (Streptococcus pneumoniae, UniProt A0A0H2ZNB5); test: Competition of unlabeled nucleotides with labeled c-di-AMP for CabP, native gel; format: binding; conditions: 1,000-fold excess of unlabeled nucleotide, 1 μM CabP, FIG. 2D
Method: FIGS. 2A-D Interaction of CabP with c-di-AMP. (A) CabP and PdxR (control) were loaded for SDS-PAGE. Gels were either stained with Coomassie Bright Blue (Staining) or blotted with labeled c-di-AMP (Blotting). M, molecular weight marker (Fisher Scientific). (B) Separation of CabP and c-di-AMP reactions with 8% native gel. (C) Mobility of c-di-AMP in the presence or absence of the indicated proteins. (D) Mobility of labeled c-di-AMP mixed with 1 μM CabP in the presence or absence of the indicated unlabeled nucleotides. “cold nt” refers to unlabeled nucleotide.
(§1) The interaction between CabP and c-di-AMP was evaluated by multiple approaches. […] Proteins in the other half gel were transferred onto PVDF membrane and incubated with [α-^32P]c-di-AMP, which we generated from [α-^32P]ATP (MP Biomedicals) using purified Mycobacterium tuberculosis DacA (2). […] We then incubate labeled c-di-AMP with various concentration of CabP in the reaction with 50 mM Tris-HCl (pH7.5), 10 mM MgCl2, 5 mM CaCl2, 5 mM KCl, and 10% (v/v) glycerol. The samples were incubated for 30 min at room temperature and then separated the reactions with 8% native PAGE gel (3). […] However, the mobility of c-di-AMP was not retarded by PdxR (FIG. 2C), indicating the specificity.

CabP [3] = biological target: T1, CabP; test: Mobility retardation of labeled c-di-AMP in 8% native PAGE gel; format: binding; conditions: 30 min at room temperature, FIG. 2B, read-out: affinity constant
Method: as §1

M. tuberculosis DacA = M. tuberculosis DacA (Mycobacterium tuberculosis, UniProt P9WNW5); test: as above; format: binding; conditions: purified M. tuberculosis DacA, FIG. 2C
Method: as §1

CabP [4] = biological target: T1, CabP; test: Blot of SDS-PAGE-separated protein on PVDF membrane incubated with [α-32P]c-di-AMP; format: binding; conditions: FIG. 2A
Method: as §1

PdxR [5] = format: binding; conditions: PdxR control on PVDF membrane, FIG. 2A
biotin-labeled c-di-AMP = test: Binding of truncated forms of CabP to biotin-labeled c-di-AMP; conditions: proteins expressed from pET28a(+)
Text: To investigate the c-di-AMP binding region of CabP, truncated forms of CabP were expressed and their ability to bind c-di-AMP examined.
Truncated forms included: P1, in which 15 amino acids were removed from the N-terminal of CabP; P2, which results from the removal of 94 amino acid residues from the C-terminal of CabP, thereby eliminating the TrkA_C region; and P3, in which both N- and C-terminal ends of CabP are truncated.
All PCR products were cloned into pET28a(+) to express P1, P2, and P3. These proteins were then used to evaluate their interaction with c-di-AMP.
No binding of P1, P2 or P3 was observed using biotin-labeled c-di-AMP, while binding to intact CabP expressed from pST2788 was normal.

CabP [6] = biological target: T1, CabP; test: ELISA on CabP-coated plate, optimization of biotin-AHC-c-di-AMP concentration; format: binding
Method: The binding of c-di-AMP by CabP is very specific with good affinity, therefore, an ELISA method using a solid support coated with CabP to detect c-di-AMP was developed (FIG. 4). The coating concentration of CabP (Table 1) and the concentration of biotin-AHC-c-di-AMP (Table 2) were optimized.
In one embodiment, a 96-well microtiter plate was coated with CabP at 50 μg/ml in coating buffer (3.03 g/L Na2CO3 and 6.0 g/L NaHCO3), 100 μl/well, sealed and incubated overnight at 4° C.
The coating solution was removed by washing three times, that is, by filling the wells with 200 μl phosphate buffered saline (PBS) containing 0.05% (v/v) polysorbate 20 (TWEEN®-20), and aspirating.
The wells of the microtiter plate were then blocked with a blocking solution (1% BSA in PBS), 100 μl/well, and the plate incubated 1 h at room temperature.
To remove the blocking solution, the plates were washed 3 times with PBS containing 0.05% (v/v) polysorbate 20 (TWEEN®-20). 25 nM biotin-labeled c-di-AMP was diluted in 50 mM Tris-HCl (pH 8.0) or other appropriate media/solution and mixed with two-fold serial diluted standards (from 200 nM to 6.25 nM), or samples prepared within 50 mM Tris-HCl (pH 8.0) or the same media/solution. 100 μl/well, incubate 2 h at room temperature.
The standards and the samples were removed, and the wells washed 3 times with PBS containing 0.05% (v/v) polysorbate 20 (TWEEN®-20).
Streptavidin-HRP (Thermo Scientific) diluted at 1:10,000 with PBS containing 0.05% (v/v) polysorbate 20 (TWEEN®-20), was added to the wells, 100 μl/well, and the plate incubated 1 h at room temperature.
The streptavidin-HRP solution was removed by washing the wells 3 times with PBS containing 0.05% (v/v) polysorbate 20 (TWEEN®-20).
A substrate solution [20 ml 0.1 M citric acid (pH 5.0), 20 μl 30% H2O2, and 10 mg o-phenylenediamine (OPD) (Sigma, 1 tablet)], 100 μl/well, was added to each well. After approximately 30 minutes (typical) or sufficient color development, 100 μl/well stop solution (2 N H2SO4) was added to each well. The absorbance of each well was read with a plate reader at 492 nm.

T1 sequence (A0A0H2ZNB5 whole entry, added parts left off): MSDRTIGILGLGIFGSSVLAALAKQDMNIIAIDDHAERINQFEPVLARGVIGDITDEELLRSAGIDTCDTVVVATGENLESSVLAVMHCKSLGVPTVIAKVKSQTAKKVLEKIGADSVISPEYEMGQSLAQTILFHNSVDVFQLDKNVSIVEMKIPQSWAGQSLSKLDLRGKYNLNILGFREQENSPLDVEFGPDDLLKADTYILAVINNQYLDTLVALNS
M. tuberculosis DacA, sequence (P9WNW5 whole entry): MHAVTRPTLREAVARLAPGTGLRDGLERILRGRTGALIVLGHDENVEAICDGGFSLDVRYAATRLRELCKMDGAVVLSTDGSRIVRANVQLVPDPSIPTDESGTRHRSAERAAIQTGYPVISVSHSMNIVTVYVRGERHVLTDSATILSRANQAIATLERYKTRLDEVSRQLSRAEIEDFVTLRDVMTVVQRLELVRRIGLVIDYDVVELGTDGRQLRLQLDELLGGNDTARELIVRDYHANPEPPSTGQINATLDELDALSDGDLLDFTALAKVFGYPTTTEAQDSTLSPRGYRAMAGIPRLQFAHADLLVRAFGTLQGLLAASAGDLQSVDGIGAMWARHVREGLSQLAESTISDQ

## Nc1ncnc2c1ncn2[C@@H]1O[C@@H]2COP(=O)(O)O[C@H]3[C@@H](O)[C@H](n4cnc5c(N)ncnc54)O[C@@H]3COP(=O)(O)O[C@H]2[C@H]1O [c-di-AMP, cyclic di-adenosine monophosphate]
PdxR [1]
  retardation of c-di-AMP mobility: not retarded
CabP [2]
  free labeled c-di-AMP in the presence of unlabeled nucleotide: free c-di-AMP could be observed
CabP [3]
  Kd: ~150 nM
M. tuberculosis DacA
  retardation of c-di-AMP mobility: retardation was also observed

## [α-^32P]c-di-AMP [labeled c-di-AMP]
CabP [4]
  binding of labeled c-di-AMP to blotted protein: bound
PdxR [5]
  binding of labeled c-di-AMP to blotted protein: not

## CabP
biotin-labeled c-di-AMP
  binding to biotin-labeled c-di-AMP: normal

## biotin-AHC-c-di-AMP [B-c-di-AMP]
CabP [6]; [B-c-di-AMP] 0.78125
  ELISA signal, Binding Buffer: 0.158
CabP [6]; [B-c-di-AMP] 1.5625
  ELISA signal, Binding Buffer: 0.2503
CabP [6]; [B-c-di-AMP] 3.125
  ELISA signal, Binding Buffer: 0.4685
CabP [6]; [B-c-di-AMP] 6.25
  ELISA signal, Binding Buffer: 0.7071
CabP [6]; [B-c-di-AMP] 12.5
  ELISA signal, Binding Buffer: 0.8821
CabP [6]; [B-c-di-AMP] 25
  ELISA signal, Binding Buffer: 1.1813
CabP [6]; [B-c-di-AMP] 50
  ELISA signal, Binding Buffer: 1.352
CabP [6]; [B-c-di-AMP] 100
  ELISA signal, Binding Buffer: 1.4377
